According to patent US12139488B2, “Pyrido[3,2-d]pyrimidine compounds uses thereof for treating a proliferative disease” (Universite de Montreal, priority 2021, dated 2024):
Read-outs that look alike come from different tables or passages of the source.

How the values were obtained:
BRAF = BRAF (Homo sapiens (Human), UniProt P15056); assay: BRAF kinase activity assay (ADP-Glo); type: biochemical
Procedure: (§1) Compound preparation: solid samples of each substances in 1 dram vials were suspended in DMSO (Fisher Scientific) at a stock concentration of 20 mM. Stocks were kept at −20° C. and protected from light.
(§2) In vitro enzymatic reactions were used for evaluating compounds intrinsic activity against BRAF, CRAF and ARAF. […] Separate reactions were performed with the MEK1 substrate and ATP as a blank control.
(§3) For compound treatment, 5 μL/well of test substance solution are placed in a 384-well proxyplate (Perkin Elmer) and mixed with 2× concentrated kinase reactions. The dilution series is selected so that nine concentrations cover a range from 100 nM to 0.01 nM. […] The final concentration of DMSO in the assay is set at 0.05%.
(§4) BRAF and CRAF kinase reactions were carried out for a total of 2 hours at 30° C. and then stopped by ½ dilution in ADP-Glo Reagent (cat #V9102; Promega; part V912C). Reactions were then incubated for 1h at room temperature before addition of one volume of Kinase Detection Reagent (cat #V9102; Promega; part V917A). Plates were then equilibrated at room temperature for 30 minutes before detection of luminescence on a Synergy Neo2 plate reader (Biotek). The effect of each compound dilution on BRAF and CRAF kinase activity was expressed as % inhibition and calculated as follows.
(§5) IC50 values were obtained by plotting the kinase inhibition values and fitting the dose-activity curves using a log(agonist) versus response-variable slope (four parameters) function using either GraphPadPrism (V7.0) or Dotmatics Screening Ultra platform.

CRAF = CRAF (Homo sapiens, UniProt P04049); assay: CRAF kinase activity assay (ADP-Glo); type: biochemical
CRAF, sequence (P04049 whole entry, looked up): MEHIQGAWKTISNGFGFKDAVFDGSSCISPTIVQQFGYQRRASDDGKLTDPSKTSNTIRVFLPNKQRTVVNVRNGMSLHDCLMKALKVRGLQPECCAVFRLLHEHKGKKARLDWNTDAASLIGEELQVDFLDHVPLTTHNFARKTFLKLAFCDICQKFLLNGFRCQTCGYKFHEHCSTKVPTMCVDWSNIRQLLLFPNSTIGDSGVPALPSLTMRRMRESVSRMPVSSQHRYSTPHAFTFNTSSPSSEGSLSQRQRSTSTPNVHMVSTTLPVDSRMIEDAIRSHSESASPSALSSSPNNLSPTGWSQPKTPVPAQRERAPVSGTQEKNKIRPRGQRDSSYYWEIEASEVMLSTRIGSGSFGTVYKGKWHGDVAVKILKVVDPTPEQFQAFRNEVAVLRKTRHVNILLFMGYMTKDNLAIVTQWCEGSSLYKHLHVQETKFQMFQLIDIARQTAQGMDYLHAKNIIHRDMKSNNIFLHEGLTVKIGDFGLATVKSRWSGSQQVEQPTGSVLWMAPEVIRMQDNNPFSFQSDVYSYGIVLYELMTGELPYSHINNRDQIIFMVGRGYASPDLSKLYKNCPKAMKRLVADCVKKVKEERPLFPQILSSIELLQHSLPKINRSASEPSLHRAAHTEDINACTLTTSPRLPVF
Procedure: as §1, §2, §3, §4, §5

[1] = tested on: pERK in HCT-116 cells (KRAS G13D); assay: Phospho-ERK inhibition (AlphaLISA SureFire Ultra p-ERK 1/2), HCT116; type: cell-based, human; conditions: for HCT116 pERK % Ymin (lowest value of the IC50 curve): Ymin above −20% = minimal or no paradoxical activation
Method in brief: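 Overnight-seeded cells received compound for an hour before lysis, and phospho-ERK1/2 was then measured with an AlphaLISA SureFire Ultra kit. Percent inhibition relative to vehicle, after trametinib background subtraction, gave IC50 by curve fitting.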

[2] = tested on: pERK in SW480 cells (KRAS G12D); assay: Phospho-ERK inhibition (AlphaLISA), SW480; type: cell-based, human; conditions: SW480 cells; for SW480 pERK Ymin %: Ymin in brackets; for IC50: class symbol before the bracket
Procedure: All cancer cell lines (A375, A101D, A2058, RKO, HT29 SK-MEL 30, IPC298, HepG2, HCT-116, Lovo, SWV620, SW480, NCI-H358, NCI-H2122, Calu-6, NCIH2087, NCIH1755, NCIH1666 and Mewo) were obtained from ATCC and cultured in RPMI-1640 medium (Gibco) supplemented with 5% heat inactivated fetal bovine serum (FBS, Wisent) at 37° C. under 5% CO2. Cells were maintained in T175 flasks (Greiner). They were passaged by removing the culture medium, washing once in 10 mL of room temperature Phosphate Buffered Saline (PBS; Wisent) and incubating at 37° C. with 2 mL of 0.05% Trypsin (Thermo-Fisher). Trypsin was then inactivated by adding complete growth medium and the cells were then replated in a T175 culture dish at the appropriate dilution. All cell lines were routinely tested for mycoplasma contamination. Tissue type and mutational status of each cell line can be found in Table B.
AlphaLISA® SureFire® Ultra™ p-ERK 1/2 (Thr202/Tyr204) analysis was conducted on cells plated in 100 μL of complete RPMI-1640 growth medium in 96-well flat-bottomed transparent dishes (Costar) at a density indicated in Table C. Cells were maintained overnight at 37° C. under 5% CO2 before treatment with compounds' dilution series for one hour. The cell density in cells/cm^2 corresponds to cell number divided by the area of one well of a 96-well plate ([…]).
In a dilution series 100 μL/well of test substance dilution prepared in complete RPMI-1640 growth media was added to the cells. The dilution series is selected so that ten concentrations cover a range from 10 μM to 0.33 nM. If necessary the initial concentration of 10 μM is increased to 100 μM or lowered to 1 μM (as in the case of A375 and H1666 cells, which are generally more sensitive to the compounds) and further dilution is carried out accordingly. The final concentration of DMSO in the assay is set at 0.5%.
After treatment, media was removed and cells were lysed in 50 μL of 1× AlphaScreen Ultra Lysis Buffer (Perkin Elmer). The AlphaLISA® SureFire® Ultra™ p-ERK 1/2 (Thr202/Tyr2O4) (PerkinElmer) reactions were performed with 5 μL of cell lysate according to the manufacturer's specifications in 384-well proxyplates (Perkin Elmer) followed by overnight incubation of the reactions at room temperature in a humidified chamber. After completion of the reactions, the signals were recorded on an EnVision plate reader (Perkin Elmer) using built in AlphaLISA® settings.
The effect of each compound dilution on the pERK signal was expressed in % inhibition and calculated as follows. An internal 100% inhibition control ([…] trametinib, cat #HY-10999; MedChem Express; CAS #871700-17-3) was included in each plate and used as a measure of pERK background. First, the value obtained for trametinib was subtracted from each data point. The average of DMSO (vehicle) controls (set as 0% inhibition) was established and used to calculate % inhibition: % inhibition=100*(1-((pERK signalcompound)/(pERK signalDMSO)))
The ability of each compound to inhibit pERK signal was expressed as an IC50 value obtained by plotting the inhibition values for each data point of a dilution series and fitting the obtained curves using a log(agonist) versus response-variable slope (four parameters) function using GraphPadPrism (V7.0) or Dotmatics Screening Ultra platform.
When present, paradoxical pERK induction is inferred from the negative % inhibition values observed in the pERK IC50 curves of a compound.

[3] = BRAF, read-out: Kinase IC50 (nM), BRAF biochemical kinase assay
[4] = CRAF, read-out: Kinase IC50 (nM), CRAF biochemical kinase assay
[5] = read-out: Kinase IC50 (nM) BRAF
[6] = read-out: Kinase IC50 (nM) CRAF
[7] = lowest % inhibition value of the IC50 curve, HCT116
[8] = HCT116 cells, class symbol before the bracket

BRAF, sequence (P15056 whole entry): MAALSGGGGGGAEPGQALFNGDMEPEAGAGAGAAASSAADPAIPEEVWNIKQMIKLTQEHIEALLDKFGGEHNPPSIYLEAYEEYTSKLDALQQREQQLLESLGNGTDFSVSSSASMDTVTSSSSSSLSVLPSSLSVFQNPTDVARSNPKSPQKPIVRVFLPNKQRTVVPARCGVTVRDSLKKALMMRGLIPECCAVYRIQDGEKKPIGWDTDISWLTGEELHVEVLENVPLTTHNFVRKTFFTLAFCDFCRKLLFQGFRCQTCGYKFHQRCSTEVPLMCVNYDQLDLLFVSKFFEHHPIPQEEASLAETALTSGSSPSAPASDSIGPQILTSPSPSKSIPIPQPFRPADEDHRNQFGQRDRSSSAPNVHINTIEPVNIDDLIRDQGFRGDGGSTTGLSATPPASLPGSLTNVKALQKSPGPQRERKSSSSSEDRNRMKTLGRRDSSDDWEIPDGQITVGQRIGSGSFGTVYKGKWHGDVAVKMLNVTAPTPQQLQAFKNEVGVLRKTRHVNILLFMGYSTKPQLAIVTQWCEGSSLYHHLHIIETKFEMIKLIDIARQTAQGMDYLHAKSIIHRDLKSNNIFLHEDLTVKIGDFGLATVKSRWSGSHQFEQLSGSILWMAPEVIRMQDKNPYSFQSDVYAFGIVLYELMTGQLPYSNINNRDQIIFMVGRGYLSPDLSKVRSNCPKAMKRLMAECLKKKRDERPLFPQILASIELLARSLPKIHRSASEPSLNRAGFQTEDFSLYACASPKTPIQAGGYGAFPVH

Row | Structure (SMILES) | IC50 (BRAF; [3]) [nM] | IC50 (CRAF; [4]) [nM] | IC50 ([1]; HCT116 cells) [nM] | HCT116 pERK % Ymin (lowest value of the IC50 curve) ([1]; HCT116 cells) [%] | IC50 (BRAF; [5]) [nM] | IC50 (CRAF; [6]) [nM] | HCT116 pERK Ymin % ([1]; HCT116 cells, Ymin in brackets) [%] | IC50 [1, 8] [nM] | further results
1 | O=S(=O)(Nc1cccc(Nc2ncnc3ccc(-n4cnc5ccccc54)nc23)c1F)c1cccc(Cl)c1Cl [Example 646] |  |  |  |  |  |  |  |  | IC50 (BRAF; Table 5, read-out: Kinase IC50 (nM) BRAF): 1 to 10 nM; IC50 (CRAF; Table 5, read-out: Kinase IC50 (nM) CRAF): 10 to 50 nM; IC50 ([1]; HCT116 cells, Table 5): < 500 nM; HCT116 pERK Ymin % ([1]; lowest value of the curve, HCT116, Table 5): −3%
2 | Cc1cn(-c2ccc3ncnc(Nc4c(F)ccc(NS(=O)(=O)c5cccc(Cl)c5Cl)c4F)c3n2)nn1 [Example 684] | < 1 | < 10 | < 500 | −14 |  |  |  |  | 
3 | O=S(=O)(Nc1ccc(F)c(Nc2ncnc3ccc(-n4cnc5ccccc54)nc23)c1F)c1ccc(C(F)(F)F)cc1Cl [Example 653] |  |  |  |  | > 10 | > 50 |  |  | IC50 ([1]; HCT116 cells, 1 h treatment): 1000 to 10000 nM; HCT116 pERK Ymin % [1, 7]: −13%
4 | CNC(=O)c1cn(-c2ccc3ncnc(Nc4c(F)ccc(NS(=O)(=O)c5ccccc5Cl)c4F)c3n2)c2ccccc12 [Ex 86] |  |  |  |  | 1 to 10 | 10 to 50 | −10 | 1000 to 10000 | 
5 | Cc1csc(S(=O)(=O)Nc2ccc(F)c(Nc3ncnc4ccc(-n5cnc6ccccc65)nc34)c2F)c1Cl [Example 316, N-(3-((6-(1H-benzo[d]imidazol-1-yl)pyrido[3,2-d]pyrimidin-4-yl)amino)-2,4-difluorophenyl)-3-chloro-4-methylthiophene-2-sulfonamide] |  |  |  |  | < 1 | < 10 |  |  | IC50 ([1]; Homo sapiens, HCT-116, HCT116 cells, 1 h treatment): 500 to 1000 nM; HCT116 pERK Ymin % [1, 7]: −5%
6 | Cc1ncc(-c2ccc3ncnc(Nc4c(F)ccc(NS(=O)(=O)c5cccc(Cl)c5Cl)c4F)c3n2)[nH]1 [Example 595] | 1 to 10 | 10 to 50 | 1000 to 10000 | −16 |  |  |  |  | 
7 | O=S(=O)(Nc1ccc(F)c(Nc2ncnc3ccc(-n4cnc5c(N6CCNCC6)cccc54)nc23)c1F)c1cccc(Cl)c1Cl [Example 634] | < 1 | < 10 | < 500 | −2 |  |  |  |  | 
8 | CCC1(O)CCN(c2nccc3c2ncn3-c2ccc3ncnc(Nc4c(F)ccc(NS(=O)(=O)c5cccc(Cl)c5Cl)c4F)c3n2)CC1 [Example 691] | 1 to 10 | 10 to 50 | < 500 | 6 |  |  |  |  | 
9 | O=S(=O)(Nc1ccc(F)c(Nc2ncnc3ccc(-n4cnc5c(C6CCN(CCO)CC6)cccc54)nc23)c1F)c1cccc(Cl)c1Cl [Example 681] | < 1 | < 10 | < 500 | −9 |  |  |  |  | 
10 | Cc1c(Cl)cccc1S(=O)(=O)Nc1ccc(F)c(Nc2ncnc3ccc(-n4nnc5c(O)cccc54)nc23)c1F [Example 117] |  |  |  |  | 1 to 10 | < 10 | −12 | 500 to 1000 | 
11 | O=S(=O)(Nc1ccc(F)c(Nc2ncnc3ccc(-n4cnc5nccnc54)nc23)c1F)c1cccc(Cl)c1Cl [Example 573] | > 10 | > 50 | 1000 to 10000 | −1 |  |  |  |  | 
12 | O=C(Nc1cccc2c1ncn2-c1ccc2ncnc(Nc3c(F)ccc(NS(=O)(=O)c4ccccc4Cl)c3F)c2n1)N1CCOCC1 [Example 149] |  |  |  |  | 1 to 10 | 10 to 50 | 8.5 | 500 to 1000 | 
13 | NC(=O)Cc1cn(-c2ccc3ncnc(Nc4c(F)ccc(NS(=O)(=O)c5ccccc5Cl)c4F)c3n2)c2ccccc12 [Ex 90] |  |  |  |  | 1 to 10 | < 10 | −1 | 1000 to 10000 | 
14 | O=S(=O)(Nc1ccc(F)c(Nc2ncnc3ccc(-n4cnc5c(CN6CCCC6)cccc54)nc23)c1F)c1ccccc1Cl [Ex 219] |  |  |  |  | 1 to 10 | 10 to 50 | 0 | 1000 to 10000 | 
15 | O=S1(=O)CCN(c2cccc3c2ncn3-c2ccc3ncnc(Nc4c(F)ccc(NS(=O)(=O)c5cccc(Cl)c5Cl)c4F)c3n2)CC1 [Example 628] |  | < 10 | 500 to 1000 | 0 |  |  |  |  | 
16 | COc1ccc(S(=O)(=O)Nc2ccc(F)c(Nc3ncnc4ccc(-n5cnc6c([N+](=O)[O-])cccc65)nc34)c2F)c(C)c1 [Example 70] |  |  |  |  |  |  | −3 | 1000 to 10000 | SW480 pERK Ymin % [2]: 5%; IC50 [2]: 1000 to 10000 nM
17 | N#Cc1ccc(-c2ccc3ncnc(Nc4c(F)ccc(NS(=O)(=O)c5ccccc5Cl)c4F)c3n2)cc1 [Ex 78] |  |  |  |  |  |  | −9 | 1000 to 10000 | SW480 pERK Ymin % [2]: 1%; IC50 [2]: 1000 to 10000 nM
18 | COc1ccc(S(=O)(=O)Nc2ccc(F)c(Nc3ncnc4ccc(-n5cnc6nccnc65)nc34)c2F)c(C)c1 [Ex 60] |  |  |  |  |  |  | −10 | 1000 to 10000 | SW480 pERK Ymin % [2]: 10%; IC50 [2]: 1000 to 10000 nM
19 | Cc1c([N+](=O)[O-])ncn1-c1ccc2ncnc(Nc3c(F)ccc(NS(=O)(=O)c4ccccc4Cl)c3F)c2n1 [Ex 82] |  |  |  |  |  |  | −5 | 1000 to 10000 | SW480 pERK Ymin % [2]: 2%; IC50 [2]: 1000 to 10000 nM
